# Laboratory results from patent publication US6951870B2, “Coumarin derivatives with COMT inhibiting activity” (Orion Corporation, priority 2000, dated 2005).
# Target: T1, S-COMT enzyme (Homo sapiens, UniProt P21964)
# T1 sequence (P21964 1-221 isoform P21964-2): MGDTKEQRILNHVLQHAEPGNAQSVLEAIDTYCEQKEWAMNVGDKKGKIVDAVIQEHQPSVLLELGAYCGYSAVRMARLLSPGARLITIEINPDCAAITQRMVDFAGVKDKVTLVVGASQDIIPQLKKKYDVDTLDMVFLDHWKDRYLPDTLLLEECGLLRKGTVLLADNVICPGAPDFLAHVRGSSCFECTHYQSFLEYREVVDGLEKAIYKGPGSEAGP
# Assay: Determination of COMT activity (IC50)
# Format: biochemical
# Details: S-COMT about 30 nM, 3 mM dopamine substrate, 0.05 mM AdoMet, 5 mM MgCl2, pH 7.4, 37° C., 15 min
# Protocol: Experiment I: Determination of COMT Activity (IC50)
# The determination of IC50 was performed by mesuring the COMT activity in a test sample which contained S-COMT enzyme (about 30 nM), 3 mM dopamine (as the substrate of COMT), 5 mM magnesium chloride, 0.05 mM S-adenosyl-L-methionine (AdoMet) and a test compound of the invention at various concentrations in 0.1 M phosphate buffer, pH 7.4, at 37° C.
# The reaction in the test sample was initiated by adding the dopamine substrate to the sample mixture and, after incubation for 15 min at 37° C., the reaction was stopped with 4 M perchloric acid and stabilized further 10 min in ice bath. Thereafter the precipitated proteins were removed by centrifugation (4000×G for 10 min). The activity of COMT enzyme was measured by determining the concentration of the reaction products, 3-methyldopamine and 4-methyidopamine, by HPLC. The results were calibrated with 3-methyidopamine standards. See also T.Lotta et al., Biochemistry, vol.34(13), 1995, p.4204, T.Lotta et al. The IC50 value is the concentration of the test compound which causes a 50% decrease in COMT activity.
row,IC50,Structure (SMILES)
1,30 nM,"O=c1oc2c([N+](=O)[O-])c(O)c(O)cc2cc1-c1ccccc1 [Example 6(b), 6,7-Dihydroxy-8-nitro-3-phenyl-chromen-2-one]"
2,30 nM,"O=C(c1ccccc1)c1cc2c([N+](=O)[O-])c(O)c(O)cc2oc1=O [Example 7, 3-Benzoyl-6,7-dihydroxy-5-nitro-chromen-2-one]"
3,20 nM,"O=C(O)c1cc2c([N+](=O)[O-])c(O)c(O)cc2oc1=O [Example 9(c), 6,7-Dihydroxy-5-nitro-2-oxo-2H-chromene-3-carboxylic acid]"
4,35 nM,"O=C(O)c1cc2cc(O)c(O)c([N+](=O)[O-])c2oc1=O [Example 10(d), 6,7-Dihydroxy-8-nitro-2-oxo-2H-chromene-3-carboxylic acid]"
5,10 nM,"O=C(O)Cc1cc2c([N+](=O)[O-])c(O)c(O)cc2oc1=O [Example 11(c), (6,7-Dihydroxy-5-nitro-2-oxo-2H-chromen-3-yl)-acetic acid]"

# The next lines start with the compound.
row,Structure (SMILES),IC50
1,"O=c1oc2cc(O)c(O)c([N+](=O)[O-])c2c2c1CCCC2 [Example 8, 2,3-Dihydroxy-1-nitro-7,8,9,10-tetrahydro-benzo[c]chromen-6-one]",50 nM
2,"O=c1oc2cc(O)c(O)c([N+](=O)[O-])c2cc1-c1nnn[nH]1 [Example 12(b), 6,7-Dihydroxy-5-nitro-3-(1H-tetrazol-5-yl)-chromen-2-one]",10 nM
3,"Cc1c(CC(=O)O)c(=O)oc2cc(O)c(O)c([N+](=O)[O-])c12 [Example 13(c), (6,7-Dihydroxy-4-methyl-5-nitro-2-oxo-2H-chromen-3-yl)-acetic acid]",60 nM
